Experimental findings from US11078193B2 (priority 2014, dated 2021) are described below.

The test system of series [1] is HBV. In words: anti-HBV activity, HepG2.2.15 stable transfected cell line, HBV DNA from secreted virions by realtime PCR. In kind it is cell-based. Particulars: Hepatitis B virus, 144 h, HepG2.2.15 cells, 6 days of treatment.
The subject of series [2] is HBV. Nature of the series: anti HBV activity, HepG2.117 inducibly HBV producing cell line (Tet-off), intracellular HBV DNA by realtime PCR. In kind it is cell-based. Particulars: Hepatitis B virus, 72 h, HepG2.117 cells, 3 days of treatment.
The nature of series [3]: Cytotoxicity, HepG2 cells, Resazurin assay. Format: cell-based. The note with it: human. A general note: Alamar Blue is a resazurin reagent that responds to reducing activity.
Series [4] in a line: ATP based toxicity assay (ATPlite), HepG2 cell line. The note with it: human, HepG2 cells, ATPlite (ATP levels). A digest of the protocol: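 HepG2 cells exposed to compound, then ATPlite reagent added at 1 volume. Cellular ATP read by luminescence as a viability measure.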
(In general: In ATP-based viability assays light output follows the ATP content of the culture.)

SMILES strings stand for the structures. Bounds are passed on as bounds.

The term EC50 denotes the midpoint of the concentration-response curve. Low values mean higher potency in that assay, high ones lower potency in that assay. What is called CC50 is the concentration that lowers cell viability or growth by half.

Consider `C[C@@H](NS(=O)(=O)c1cn(C)c(C(=O)Nc2ccnc(Cl)c2)c1F)C(F)(F)F` [Compound 20, N-(2-chloro-4-pyridyl)-3-fluoro-1-methyl-[[(1R)-2,2,2-trifluoro-1-methyl-ethyl]sulfamoyl]pyrrole-2-carboxamide], for which the values for the EC50 with HBV [1] and with HBV [2] were 30 nM and 20 nM, respectively. The CC50 at 4 days in series [3] and in series [4] was over 25000 nM throughout.

On to `C[C@@H](NS(=O)(=O)c1cn(C)c(C(=O)Nc2ccnc(F)c2)c1F)C(C)(F)F` [Compound 98, 4-[[(1R)-2,2-difluoro-1-methyl-propyl]sulfamoyl]-3-fluoro-N-(2-fluoro-4-pyridyl)-1-methyl-pyrrole-2-carboxamide], for which the half-maximal effective concentration (EC50) was determined as 40 nM with HBV [1] and 30 nM in the series on HBV [2]. Moreover, the CC50 at 4 days in series [3] and in series [4] was over 25000 nM throughout.

Take `C[C@@H](NS(=O)(=O)c1cn(C)c(C(=O)Nc2ccnc(C(F)F)c2)c1Cl)C(C)(F)F` [Compound 97, 3-chloro-4-[[(1R)-2,2-difluoro-1-methyl-propyl]sulfamoyl]-N-[2-(difluoromethyl)-4-pyridyl]-1-methyl-pyrrole-2-carboxamide]: the EC50 with HBV [1] and in the series on HBV [2] was 20 nM each time. The CC50 at 4 days in series [3] and in series [4] was over 25000 nM each time.

On to `C[C@@H](NS(=O)(=O)c1cn(C)c(C(=O)Nc2ccnc(C#N)c2)c1F)C(C)(F)F` [Compound 63, N-(2-cyano-4-pyridyl)-4-[[(1R)-2,2-difluoro-1-methyl-propyl]sulfamoyl]-3-fluoro-1-methyl-pyrrole-2-carboxamide], for which the EC50 in the series on HBV [1] was found to be 10 nM; with HBV [2], 30 nM. The CC50 at 4 days in series [3] and in series [4] was over 25000 nM each time.

For `C[C@@H](NS(=O)(=O)c1cn(C)c(C(=O)Nc2ccnc(C(F)F)c2)c1F)C(C)(F)F` [Compound 88, 4-[[(1R)-2,2-difluoro-1-methyl-propyl]sulfamoyl]-N-[2-(difluoromethyl)-4-pyridyl]-3-fluoro-1-methyl-pyrrole-2-carboxamide], the EC50 in the series with HBV [1] came out at 7 nM; in the series on HBV [2], 10 nM. In addition, the CC50 at 4 days in series [3] and in series [4] was over 25000 nM throughout.

With `Cc1c(S(=O)(=O)N[C@H](C)C(F)(F)F)c(Cl)c(C(=O)Nc2ccnc(C#N)c2)n1C` [Compound 32, 3-chloro-N-(2-cyano-4-pyridyl)-1,5-dimethyl-4-[[(1R)-2,2,2-trifluoro-1-methyl-ethyl]sulfamoyl]pyrrole-2-carboxamide], the EC50 with HBV [1] and in the series on HBV [2] was 20 nM in each case. Besides, the CC50 at 4 days in series [3] and in series [4] was over 25000 nM each time.

In the case of `C[C@@H](NS(=O)(=O)c1cn(C)c(C(=O)Nc2ccnc(Br)c2)c1Cl)C(C)(F)F` [Compound 105, N-(2-bromo-4-pyridyl)-3-chloro-4-[[(1R)-2,2-difluoro-1-methyl-propyl]sulfamoyl]-1-methyl-pyrrole-2-carboxamide], the results for the EC50 in the series with HBV [1] and with HBV [2] were under 100 nM and 20 nM, respectively. Moreover, the CC50 at 4 days in series [3] was over 25000 nM; in series [4], 23300 nM.

As for `C[C@@H](NS(=O)(=O)c1cn(C)c(C(=O)Nc2ccnc(F)c2)c1F)C(F)(F)F` [Compound 24, 3-fluoro-N-(2-fluoro-4-pyridyl)-1-methyl-4-[[(1R)-2,2,2-trifluoro-1-methyl-ethyl]sulfamoyl]pyrrole-2-carboxamide], the EC50 in the series on HBV [1] and with HBV [2] was 40 nM throughout. Further, the CC50 at 4 days in series [3] and in series [4] was over 25000 nM throughout.

Consider `Cn1cc(S(=O)(=O)NC2(C)CC(F)(F)C2)c(Cl)c1C(=O)Nc1ccnc(C(F)F)c1` [Compound 99, 3-chloro-4-[(3,3-difluoro-1-methyl-cyclobutyl)sulfamoyl]-N-[2-(difluoromethyl)-4-pyridyl]-1-methyl-pyrrole-2-carboxamide], for which the figures for the EC50 in the series with HBV [1] and in the series with HBV [2] were 10 nM and 20 nM, respectively. The CC50 at 4 days in series [3] and in series [4] was over 25000 nM in each case.

`Cn1cc(S(=O)(=O)NC2(C(F)(F)F)CCC2)c(Cl)c1C(=O)Nc1ccnc(C#N)c1` [Compound 40, 3-chloro-N-(2-cyano-4-pyridyl)-1-methyl-4-[[1-(trifluoromethyl)cyclobutyl]sulfamoyl]pyrrole-2-carboxamide]: the EC50 with HBV [1] and in the series on HBV [2] was 20 nM in each case. For the same compound, the CC50 at 4 days in series [3] and in series [4] was over 25000 nM throughout.

`Cn1cc(S(=O)(=O)NC2(C)CC(F)(F)C2)c(F)c1C(=O)Nc1ccnc(Cl)c1F` [Compound 81, N-(2-chloro-3-fluoro-4-pyridyl)-4-[(3,3-difluoro-1-methyl-cyclobutyl)sulfamoyl]-3-fluoro-1-methyl-pyrrole-2-carboxamide]: the results for the half-maximal effective concentration (EC50) in the series on HBV [1] and with HBV [2] were 10 nM and 8 nM, respectively. The CC50 at 4 days is 24300 nM in series [3] and over 25000 nM in series [4].

Consider `C[C@@H](NS(=O)(=O)c1cn(C)c(C(=O)Nc2ccnc(C#N)c2)c1F)C(F)(F)F` [Compound 18, N-(2-Cyanopyridin-4-yl)-3-fluoro-1-methyl-4-{[(1R)-2,2,2-trifluoro-1-methylethyl]sulfamoyl}-1H-pyrrole-2-carboxamide], for which the EC50 in the series with HBV [1] and with HBV [2] was 30 nM each time. Also, the CC50 at 4 days in series [3] and in series [4] was over 25000 nM throughout.

For `C[C@@H](NS(=O)(=O)c1cn(C)c(C(=O)Nc2ccnc(F)c2)c1Cl)C(C)(F)F` [Compound 95, 3-chloro-4-[[(1R)-2,2-difluoro-1-methyl-propyl]sulfamoyl]-N-(2-fluoro-4-pyridyl)-1-methyl-pyrrole-2-carboxamide], the EC50 in the series with HBV [1] was determined as 60 nM; with HBV [2], 40 nM. Moreover, the CC50 at 4 days in series [3] was 21600 nM; in series [4] it was over 25000 nM.

For the compound `C[C@@H](NS(=O)(=O)c1cn(C)c(C(=O)Nc2cc(F)nc(F)c2)c1F)C(C)(F)F` [Compound 159, 4-[[(1R)-2,2-difluoro-1-methyl-propyl]sulfamoyl]-N-(2,6-difluoro-4-pyridyl)-3-fluoro-1-methyl-pyrrole-2-carboxamide], the EC50 in the series with HBV [1] is under 100 nM; in the series on HBV [2], 9 nM. The CC50 at 4 days in series [3] and in series [4] was over 25000 nM each time.

As for `Cc1cc(NC(=O)c2c(Cl)c(S(=O)(=O)N[C@H](C)C(F)(F)F)cn2C)cc(C(F)F)n1` [Compound 177, 3-chloro-N-[2-(difluoromethyl)-6-methyl-4-pyridyl]-1-methyl-[[(1R)-2,2,2-trifluoro-1-methyl-ethyl]sulfamoyl]pyrrole-2-carboxamide], the EC50 was 260 nM in the series with HBV [1] and 100 nM in the series on HBV [2]. In addition, in series [4], the CC50 at 4 days is over 25000 nM.

Take `C[C@@H](NS(=O)(=O)c1cn(C)c(C(=O)Nc2ccnc(C(F)F)c2)c1Cl)C(F)(F)F` [Compound 74, 3-chloro-N-[2-(difluoromethyl)-4-pyridyl]-1-methyl-4-[[(1R)-2,2,2-trifluoro-1-methyl-ethyl]sulfamoyl]pyrrole-2-carboxamide]: the EC50 with HBV [1] and in the series on HBV [2] was 20 nM in each case. In addition, the CC50 at 4 days in series [3] and in series [4] was over 25000 nM each time.

As to `Cc1cc(NC(=O)c2c(F)c(S(=O)(=O)N[C@H](C)C(F)(F)F)cn2C)cc(F)n1` [Compound 152, 3-fluoro-N-(2-fluoro-6-methyl-4-pyridyl)-1-methyl-4-[[(1R)-2,2,2-trifluoro-1-methyl-ethyl]sulfamoyl]pyrrole-2-carboxamide], the concentration giving a half-maximal response (EC50) in the series on HBV [1] is under 100 nM; in the series on HBV [2], 10 nM. In addition, the CC50 at 4 days in series [3] and in series [4] was over 25000 nM throughout.

For the compound `Cn1cc(S(=O)(=O)NC2(C(F)(F)F)CCC2)c(Cl)c1C(=O)Nc1ccnc(Cl)c1` [Compound 46, 3-chloro-N-(2-chloro-4-pyridyl)-1-methyl-4-[[1-(trifluoromethyl)cyclobutyl]-sulfamoyl]pyrrole-2-carboxamide], the values for the EC50 in the series on HBV [1] and with HBV [2] were 10 nM and 20 nM, respectively. Also, the CC50 at 4 days in series [3] and in series [4] was over 25000 nM in each case.

Consider `Cn1cc(S(=O)(=O)NC2(C(F)(F)F)CC2)c(F)c1C(=O)Nc1ccnc(Cl)c1` [Compound 175, N-(2-chloro-4-pyridyl)-3-fluoro-1-methyl-4-[[1-(trifluoromethyl)cyclopropyl]sulfamoyl]pyrrole-2-carboxamide], for which the EC50 in the series on HBV [1] amounted to 120 nM; in the series on HBV [2] it was 20 nM. In series [4], this compound showed a CC50 at 4 days of over 25000 nM.

Regarding `C[C@@H](NS(=O)(=O)c1cn(C)c(C(=O)Nc2ccnc(C(F)F)c2)c1F)C(F)(F)F` [Compound 80, N-[2-(difluoromethyl)-4-pyridyl]-3-fluoro-1-methyl-4-[[(1R)-2,2,2-trifluoro-1-methyl-ethyl]sulfamoyl]pyrrole-2-carboxamide], the EC50 in the series on HBV [1] worked out at 10 nM; in the series with HBV [2] it was 20 nM. In addition, the CC50 at 4 days in series [3] and in series [4] was over 25000 nM in each case.

With `C[C@@H](NS(=O)(=O)c1cn(C)c(C(=O)Nc2cc(F)nc(F)c2)c1Cl)C(C)(F)F` [Compound 104, 3-chloro-4-[[(1R)-2,2-difluoro-1-methyl-propyl]sulfamoyl]-N-(2,6-difluoro-4-pyridyl)-1-methyl-pyrrole-2-carboxamide], the EC50 was under 100 nM in the series on HBV [1] and 10 nM in the series on HBV [2]. In addition, the CC50 at 4 days in series [3] and in series [4] was over 25000 nM throughout.

Consider `C[C@@H](NS(=O)(=O)c1cn(C)c(C(=O)Nc2ccnc(Cl)c2)c1F)C(C)(F)F` [Compound 61, N-(2-chloro-4-pyridyl)-4-[[(1R)-2,2-difluoro-1-methyl-propyl]sulfamoyl]-3-fluoro-1-methyl-pyrrole-2-carboxamide], for which the EC50 with HBV [1] came to 10 nM; with HBV [2], 20 nM. Besides, the CC50 at 4 days in series [3] and in series [4] was over 25000 nM in each case.
